“Also recorded” adds a separate entry of the source. Read-outs that look alike come from different tables or passages of the source.
Columns and labels:
[1] = Plasma biochemistry after 17 days of treatment in WD fed rats (glycemia, insulin, HOMA-IR, adiponectin, FFA, TG); type: in vivo, rat; details: for Decrease of HOMA-IR / Decrease of plasma insulin: 4 h fasted; for Decrease of HOMA-IR: pioglitazone 10, metformin 50, GW501516 10, compound I.1 10 mg/kg; for Decrease of plasma insulin: pioglitazone 10, metformin 50, GW501516 10, compound I.1 10 mg/kg +metformin 50 mg/kg; for Plasma adiponectin levels: pioglitazone 10, metformin 50, GW501516 10, compound I.1 3 and 10 mg/kg
[2] = Liver and adipose tissue weights after 5 weeks of treatment in WD fed rats; type: in vivo, rat; details: for Decrease of liver weight: non significant, pioglitazone 10, GW501516 10 mg/kg
Description: (§1) At the end of the clamp procedure (9.5 hours fasting), perirenal, retroperitoneal, epididymal and inguinal fat pads and liver weights were recorded. Blood was collected from cardiac puncture and plasmas were stored at −80° C. for further assays if needed (depending on the radioactive state of samples). Liver triglyceride content was assessed (enzymatic-colorimetric method) as well as liver and adipose tissue TNF-α content (ELISA method).

TNF-α = TNF-α content in liver and epididymal white adipose tissue after 5 weeks of treatment in WD fed rats (ELISA); type: in vivo, rat; details: for Decrease of TNF-α levels in epididymal white adipose tissues: metformin 50, GW501516 10, compound I.1 10 mg/kg (alone or +metformin 50 mg/kg)
Description: as §1

[3] = Body weight follow-up during treatment in rats fed a high fat/medium fructose diet (WD); type: in vivo, rat; details: oral once daily, pioglitazone 10, metformin 50, GW501516 10, compound I.1 10 mg/kg (alone or +metformin 50 mg/kg)
From the text: The first set of rats was undergoing an OGTT after 3 weeks of treatment (half rats/group of the clamp arm) and the second set was also undergoing an OGTT after 3 weeks of treatment (half rats/group of clamp arm) and the Histology study (3 rats/group). […] Homogenous mild obese and insulin resistant rats were allocated into the different treatment groups and western diet was continued until the end of the experiment. Given that, the 2 series started with a gap of one week Dosage regimen: Rats were treated once daily via the oral route, in the morning. The duration of the treatment was between 5 and 5.5 weeks. […], 10 mg/Kg (n=12) […] The second set of rats was weighted at 8:30 on days 17 and 21, at 1:45 pm on day 24 and at 11:10 am on day 28.

[4] = Euglycemic-hyperinsulinemic 2 steps clamp with 3H-glucose after 5 weeks of treatment in WD fed rats; type: in vivo, rat; details: for Increase of GIR (glucose infusion rate) during the first step / Decrease of HGP (hepatic glucose production): clamp 0.2 U/kg/h insulin, pioglitazone 10, metformin 50, compound I.1 10 mg/kg +metformin 50 mg/kg; for Increase of glycolysis: metformin 50, GW501516 10, compound I.1 10 mg/kg (alone or +metformin 50 mg/kg)
Description: After 4 weeks of treatment, a catheter was implanted into the femoral vein under isoflurane anaesthesia and a period of 5-6 days was respected for recovery. […] The morning of the clamp procedure, rats were treated and fasted for 6 hours prior to tracer, glucose and insulin infusions. The beginning of the clamp procedure was performed in the middle of the dark cycle.
The euglycemic hyperinsulinemic 2 steps insulin clamp was performed using 0.2 U/kg/h and 0.8 U/kg/h insulin infusion associated with 3H-glucose infusion. We then assessed:
During the clamp procedure, a bolus (30 μCi) of D-[3-3H]glucose was first injected followed by 4 μCi/min/kg infusion rate during all the experiment to ensure a detectable plasma D[3-3H]glucose enrichment. A bolus of insulin (100 mU) was first injected, and insulin was then infused at a rate of 0.2 U/kg/h for the first 2 hours and 0.8 U/kg/h from 120 minutes to 210 minutes.
Throughout the infusion, glycaemia was assessed with a blood glucose meter from the tip of the tail vein when needed. Euglycemia was maintained by periodically (every 10 minutes) adjusting a variable infusion of 30% glucose. Plasma glucose concentrations and D-[3-3H]glucose specific activity were determined during stable phase in 10 μl of blood sampled from the tip of the tail vein every 20 minutes from 60 to 120 minutes during the first step and from 150 to 210 minutes during the second step.
For glucose turnover measurements, D-[3-3H]glucose enrichments were determined from total blood after deproteinization by a Zn(OH)2 precipitate. Briefly, an aliquot of the supernatant was evaporated to dryness to determine the radioactivity corresponding to D-3-3H. In a second aliquot of the same supernatant, glucose concentration was assessed by the glucose oxidase method (Biomérieux, France).
Calculations for glucose turnover measurements were made from parameters obtained during the infusions in steady-state condition ([…]). Briefly, the D-[3-3H]glucose specific activity was calculated by dividing the D-[3-3H]glucose enrichment by the plasma glucose concentration. The whole body glucose turnover rate was calculated by dividing the rate of D[3-3H]glucose by the D-[3-3H]glucose plasma specific activity. For each rat, the mean values were calculated and averaged with values from rats of the same group. The whole body glycolysis rate was measured by assessing the amount of tritiated water accumulated in the blood during the 3H-glucose infusion and the whole body glycogen synthesis rate was calculated by the difference between the whole body glucose turnover and the whole body glycolysis rate.

rat PPARδ = target: T1, rat PPARδ (Rattus norvegicus, UniProt Q62879); assay: GAL4-PPAR chimera transactivation assay in CV-1 cells at 10% or 0.1% serum (Example 4); type: cell-based; details: read-out: GAL4-chimera (rat) EC50 (μM) hPPARδ
T1 construct: expressed in transfected cells; host or cells: CV-1
T1 sequence (Q62879 139-440 limits assumed): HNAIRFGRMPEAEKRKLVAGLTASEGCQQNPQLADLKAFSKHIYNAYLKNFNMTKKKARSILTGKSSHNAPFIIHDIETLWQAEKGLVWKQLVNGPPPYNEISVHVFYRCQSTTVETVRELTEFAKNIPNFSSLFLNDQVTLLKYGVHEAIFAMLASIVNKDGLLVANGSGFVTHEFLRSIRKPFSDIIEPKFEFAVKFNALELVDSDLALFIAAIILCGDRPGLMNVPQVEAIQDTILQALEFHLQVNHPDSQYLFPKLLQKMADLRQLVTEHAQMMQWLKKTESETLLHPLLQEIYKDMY
Description: Assays were performed in triplicate for GAL4-chimeras. Experiments were repeated at least three times.
The EC50 were calculated as previously described.
The transactivation activities of the compound I.1 and GW501516 are measured in rat and mouse transactivation assays at 10% and 0.1% serum (Tables 11 and 12).

[5] = Oral glucose tolerance test after 3 weeks of treatment in WD fed rats; type: in vivo, rat; details: 6 h fasted, oral glucose 2.5 g/kg after 3 weeks, pioglitazone 10, metformin 50, GW501516 10, compound I.1 10 mg/kg
[6] = system: TNF-alpha-activated HUVECs; details: under physiological flow; cited from earlier work
rat PPARα = target: T2, rat PPARα (Rattus norvegicus, UniProt P37230); assay: GAL4-PPAR chimera transactivation assay in CV-1 cells at 10% or 0.1% serum (Example 4); type: cell-based; details: read-out: GAL4-chimera (rat) EC50 (μM) hPPARα
T2 construct: expressed in transfected cells; host or cells: CV-1
T2 sequence (P37230 239-466 limits assumed): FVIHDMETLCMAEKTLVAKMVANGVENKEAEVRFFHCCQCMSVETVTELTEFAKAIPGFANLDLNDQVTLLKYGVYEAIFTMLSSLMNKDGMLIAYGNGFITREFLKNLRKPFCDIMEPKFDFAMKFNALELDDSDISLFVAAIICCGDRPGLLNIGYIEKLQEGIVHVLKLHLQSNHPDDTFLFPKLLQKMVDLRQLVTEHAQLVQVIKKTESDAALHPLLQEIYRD

[7] = Triglycerides content in the liver after 5 weeks of treatment in WD fed rats (enzymatic-colorimetric method); type: in vivo, rat; details: pioglitazone 10, GW501516 10, compound I.1 at any used dose
Description: as §1

| Structure (SMILES) | Decrease of HOMA-IR [1] [%] | Decrease of plasma insulin [1] [%] | Plasma adiponectin levels [1] | Decrease of TNF-α levels in epididymal white adipose tissues (TNF-α) [%] | Body weight / body weight gain during treatment [3] | Increase of GIR (glucose infusion rate) during the first step ([4]; after 5 weeks) [%] | Decrease of HGP (hepatic glucose production) [4] [%] | Increase of glycolysis ([4]; clamp 0.8 U/kg/h insulin) [%] | Decrease of liver weight [2] [%] | other results |
| --- | --- | --- | --- | --- | --- | --- | --- | --- | --- | --- |
| CN(C)C(=N)N=C(N)N [metformin] | ~50 | 44 | did not prevent a decrease | 25 | decreased | 112 | 40 | 20 | – | Decrease of perirenal white adipose tissue ([2]; tendency, metformin 50 mg/kg alone or with compound I.1 10 mg/kg): 27%; Body weight / body weight gain during treatment ([3]; listed as Metformin): significantly decreased body weight after 2 weeks of treatment; Insulin resistance / insulin sensitizing effect (overall) ([4]; WD fed rats, after 5 weeks, compound I.1 dose not specified (3 and 10 mg/kg groups), pioglitazone 10, metformin 50 mg/kg): insulin sensitizing effects; Whole body glucose oxidation ([4]; WD fed rats, clamp after 5 weeks, metformin 50 mg/kg, compound I.1 dose not specified, alone or associated): tended to increase; GIR during the second step ([4]; clamp 0.8 U/kg/h insulin, after 5 weeks, pioglitazone 10, metformin 50 mg/kg, other groups): tended to increase GIR (not significantly) |
| CCc1ccc(CCOc2ccc(CC3SC(=O)NC3=O)cc2)nc1 (centres unmarked) [pioglitazone] | ~50 | 39 | – | – | – | 138 | 47 | – | 12 | – |
| Cc1cc(SCc2sc(-c3ccc(C(F)(F)F)cc3)nc2C)ccc1OCC(=O)O [GW-501516] | ~25 | 21 | prevented the decrease | 60 | slightly decreased body weight the first week of treatment but not in a significant manner; also recorded: significant after 4 weeks of treatment | – | – | 21 | 8 | EC50 (rat PPARδ; 0.1% serum): 0.072 ± 0.025 µM; EC50 (rat PPARδ; 10% serum): 0.427 ± 0.29 µM; Glucose tolerance (OGTT, AUC, glycemia variation) [5]: strong tendency to improved glucose tolerance; Increase of plasma TG ([1]; GW501516 10 mg/kg, compound I.1 10 mg/kg +metformin 50 mg/kg): 84%; Rolling and adhesion of hPMNs on TNF-alpha-activated HUVECs [6]: inhibited markedly; EC50 (rat PPARα; 0.1% serum): 1.96 ± 0.7 µM; EC50 (rat PPARα; 10% serum): > 10 µM; TNF-α content in the liver (TNF-α; compound I.1 10 mg/kg +metformin 50 mg/kg, GW501516 10 mg/kg, other groups): tended to decreased; Decrease of TNF-α level in the liver (TNF-α; tendency, compound I.1 10 mg/kg +metformin 50 mg/kg, GW501516 10 mg/kg): 12%; Triglycerides content in the liver [7]: tended to decrease; also recorded: did not significantly decrease |
